# US11470844B2, “Vespidae wasp repellent” (KINP CO., LTD, priority 2015, dated 2022)
# Tests used:
# Vespa mandarinia worker = assay: Black ball nest disturbance, Experiment 1 (ball with adsorbed alarm pheromone); type: in vivo; details: for total number of workers alighting on the black ball for attack: alarm pheromone adsorbed ball
# Description: The experiment was conducted with utilizing a nest of Vespa mandarinia found in Kagawa Prefecture Kinbuchi Forest Park in Takamatsu City Kagawa Prefecture on Oct. 24, 2014. Since the nest was built in the ground, the nest could not be found except for the entrance thereof.
# A vinyl ball of which diameter was 13 cm and which was coated with black lacquer was hung on the tip of a fishing rod having a length of 11 m. Hereinafter, the ball was abbreviated as “black ball”. After distilled water was sprayed on the entire surface, the vicinity of the nest entrance was disturbed by using the black ball. Specifically, the nest was disturbed by vibrating the black ball about 50 cm before the nest entrance in the air for about 10 seconds or vibrating the black ball in contact with the nest entrance for about 10 seconds. After the black ball was vibrated in the above-described conditions for about 10 seconds, the black ball was moved to the air of about 1 m before the nest entrance, and the behavior of the Vespa mandarinia worker against the black ball was shot and recorded for 2 minutes with a video camera. In the above condition, both of the black balls used in both conditions were attacked by the Vespa mandarinia workers and it is considered that the alarm pheromone was adsorbed on the black balls. Then, the black ball was kept away from the nest so that all the Vespa mandarinia workers were separated, 2-phenylethanol was sprayed on the entire surface, and the behavior of the workers against the black ball was similarly observed. The total number of workers alighting on the surface of the hemispherical side observable by the video image for attack during the vibration of the black ball was counted.
# [1] = system: Vespa simillima xanthoptera Cameron worker; assay: Black ball nest disturbance, Experiment 1; type: in vivo; details: previously attacked ball
# Description: The experiment was also conducted with utilizing a nest of Vespa simillima xanthoptera Cameron in Kagawa Prefecture Kinbuchi Forest Park in Takamatsu City Kagawa Prefecture on Oct. 24, 2014. Since the nest was also built in the ground, the nest could not be found except for the entrance thereof.
# As the above-described Example 2(1), the nest entrance was disturbed by vibrating the black ball in contact with the nest entrance for about 10 seconds. The total number of attacking worker could not be counted, since the number of the worker which attacked to the control black ball using distilled water was much larger than that of the control in the experiment for Vespa mandarinia and the worker moved very rapidly. Thus, the video image was stopped every 30 seconds from the end of the nest entrance disturbance and the number of the worker which alighted on the hemispherical surface of the black ball for attack was counted. During 120 seconds for the experiment, the workers continued to strongly attack to the black ball as the workers constantly flew to and alighted on the black ball for attack and the worker number was not decreased. Such an attack was continued even after the end of the experiment at which the tip of the rod was moved to a place 5 m or more away from the nest, and the attack was finally not observed after about 20 minutes passed from the experiment was finished. Then, 2-phenylethanol was sprayed on the black ball to which Vespa simillima xanthoptera attacked as the test liquid example and the nest entrance was disturbed using the black ball. Although the worker which tried to come close to the black ball was observed, even the closest worker changed the direction in the air 10 to 20 cm from the surface of the black ball and flew away, and no worker which flew to and alighted on the surface of the black ball was found.
# [2] = system: Vespa analis insularis (Fabricius) nest; assay: Spraying on nest surface, philopatry and homing, Experiment 2; type: in vivo
# Excerpt: The inventors investigated the worker's philopatry and homing circumstance to the nest as follows. After the above-described experiment 1, benzyl alcohol was intermittently sprayed three times on the entire surface of the same nest of Vespa analis insularis (Fabricius) by using a sprayer equipped with a nozzle having a length of 1.5 m. An adult wasp on the nest surface, worker entering and leaving the nest holes and worker coming close to the nest were shot with a video camera. The experiment was started at 14:01:30 and finished at 14:10. The numbers of the adult wasp on the nest surface and in the nest were counted immediately after the experiment. The number of adult wasp in the nest was counted by inserting the whole nest in a paper bag, sealing the paper bag, and then deconstructing the nest.
# [3] = system: Polistes jokahamae jokahamae Radoszkowski worker group; assay: Spray on worker group on nest surface; type: in vivo
# Description: (§1) The experiment involving a worker group of Polistes jokahamae jokahamae Radoszkowski on the exterior wall of a nest found in the campus of Faculty of Agriculture, Kochi University, located on 200 Otsu, Monobe, Nankoku City, Kochi Prefecture, was conducted on Jul. 13, 2015, and the experiment involving a worker of P. jokahamae jokahamae Radoszkowski which collected sap bled from sucking mark by adult Cryptotympana facialis of Zelkova tree stem planted in a private house in Fuseishi-cho, Takamatsu City, Kagawa Prefecture was conducted on July 19 to 22, 2015. In addition, the experiment involving a worker group of P. chinensis antennalis Pe'rez on the exterior wall of a nest found on a branch of a cheesewood planted at a bank of Noda pond located at Fuseishi-cho, Takamatsu City, Kagawa Prefecture was conducted on Jul. 30, 2015.
# (§2) The experiment was conducted in accordance with the above-described Example 1(1) involving a Vespa mandarinia worker, distilled water as a control example spray and benzyl alcohol as a test liquid example spray were sequentially sprayed on a test object group or a test object worker by using a sprayer, and the behavior from immediately after spraying up to 1 minute later was respectively recorded.
# [4] = system: P. jokahamae jokahamae Radoszkowski worker; assay: Spray on worker collecting Zelkova sap; type: in vivo, Polistes jokahamae jokahamae Radoszkowski
# Description: as §1, §2
# [5] = system: P. chinensis antennalis Pe'rez worker group; assay: Spray on worker group on nest; type: in vivo; details: 9:02, 1 minute after spraying benzyl alcohol; 32 workers before
# Description: as §1
# as §2, with “recorded. […]” for “recorded.”
# [6] = after first spray, 14:01:30 to 14:02:20
# [7] = after second spray, 14:02:20 to 14:04:30
# [8] = after third spray, 14:04:30 to 14:10:00
compound,measurement,setting,value
"OCCc1ccccc1 [2-Phenylethanol, 2-phenylethanol]",total number of workers alighting on the black ball for attack,Vespa mandarinia worker; Vibration in contact with nest entrance,0
same,total number of workers alighting on the black ball for attack,Vespa mandarinia worker; Vibration in the air before nest entrance,0
same,distance from the surface of the black ball at which workers changed direction and flew away,Vespa mandarinia worker; in vivo,about 10 cm
same,number of worker alighted on hemispherical surface of black ball for attack,[1]; 30 s after disturbance,0
same,number of worker alighted on hemispherical surface of black ball for attack,[1]; 60 s after disturbance,0
same,number of worker alighted on hemispherical surface of black ball for attack,[1]; 90 s after disturbance,0
same,number of worker alighted on hemispherical surface of black ball for attack,[1]; 120 s after disturbance,0
"OCc1ccccc1 [Benzyl alcohol, benzyl alcohol]",adult wasps on nest surface and in nest at the end of the experiment,"[2]; 14:10, after three sprays",All of the adult wasps got away from the nest
same,Entered nest,[2]; [6],5
same,Flew away from nest,[2]; [6],15
same,Flew to and alighted on nest surface and then flew away,[2]; [6],1
same,Flew to and came close to nest surface and then flew away,[2]; [6],2
same,Entered nest,[2]; [7],0
same,Flew away from nest,[2]; [7],10
same,Flew to and alighted on nest surface and then flew away,[2]; [7],2
same,Flew to and came close to nest surface and then flew away,[2]; [7],6
same,Entered nest,[2]; [8],0
same,Flew away from nest,[2]; [8],2
same,Flew to and alighted on nest surface and then flew away,[2]; [8],4
same,Flew to and came close to nest surface and then flew away,[2]; [8],55
same,Number of P. jokahamae jokahamae Radoszkowski on nest surface,"[3]; 10:02, 1 minute after spraying benzyl alcohol once, 11 workers before",0
same,time within which all workers flew away from the nest after spraying,[3]; group of 11 workers,≤ 10 s
same,Effective (number of worker),[4]; 10 workers collecting sap,10
same,No response (number of worker),[4]; 10 workers collecting sap,0
same,time of flapping behavior before the worker flew away,"[4]; 10 workers, or without flapping",≤ 1 s
same,Number of P. chinensis antennalis Pe'rez on nest,[5],0
